According to patent US6608082B1, “Treatment of erectile dysfunction using isoquinoline compound melanocortin receptor ligands” (Lion Bioscience AG, priority 1998, dated 2003):
Read-outs that look alike come from different tables or passages of the source.

Target: T1, MCR-1 (Homo sapiens, UniProt Q01726)
T1 construct: expressed in transfected cells; host or cells: HEK 293
Assay: Melanocortin receptor binding assay, competition with 125I-HP 467, HEK 293 cells expressing hMCR-1
Details: for IC50: read-out: MC-1 IC50; for % Disp. MC-1 10 μM: displacement of 125I-HP 467 at 10 μM isoquinoline compound; for % Disp. of 125I-HP 467 (first of duplicate) / % Disp. of 125I-HP 467 (second of duplicate): 10 μM isoquinoline compound; for % Disp. of 125I-HP 467 (first of duplicate): HEK 293 cells expressing MCR-1, duplicate 1; for % Disp. of 125I-HP 467 (second of duplicate): HEK 293 cells expressing MCR-1, duplicate 2
In short: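 Test compounds compete on intact HEK 293 cells carrying hMCR-1 (2×10^4 per tube) or hMCR-4 (4×10^3 per tube), suspended in PBS, 10% calf serum, 1 mM CaCl2.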

[1] = inhibition of binding of 125I-HP 467, HEK 293 cells expressing MCR-1
[2] = competition with 125I-HP 467, HEK 293 cells expressing MCR-1

T1 sequence (Q01726 whole entry): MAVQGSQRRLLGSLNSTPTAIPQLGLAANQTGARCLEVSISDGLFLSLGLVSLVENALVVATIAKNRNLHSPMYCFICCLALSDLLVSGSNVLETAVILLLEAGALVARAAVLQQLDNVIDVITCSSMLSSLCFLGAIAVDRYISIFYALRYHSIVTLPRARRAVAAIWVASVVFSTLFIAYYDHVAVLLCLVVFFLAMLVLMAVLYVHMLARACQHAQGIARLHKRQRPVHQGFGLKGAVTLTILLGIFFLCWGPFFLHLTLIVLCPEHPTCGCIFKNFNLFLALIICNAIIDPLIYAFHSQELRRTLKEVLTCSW

SMILES	% Disp. MC-1 10 μM (first of duplicate) [%]	% Disp. MC-1 10 μM (second of duplicate) [%]	further results
CCCCNc1ccc(C2C(CNCCc3ccccc3)c3ccccc3CN2CCCC(CN)NCc2ccc(Cl)cc2)cc1 (stereo not drawn) [TRG 2411-197]			IC50 [1]: 80 nM
CNC(C)CNC(CN)CCCCN1Cc2ccccc2C(CNCCc2ccccc2)C1c1ccc(-c2ccccc2)cc1 (stereo not drawn) [TRG 2411-6]			IC50 [2]: 470 nM
CSc1ccc(C2C(CNC3CCCCC3)c3ccccc3CN2CCN)cc1 (stereo not drawn) [TRG 2405-57]	17.4	42.6	
CNC(CN)CCCCN1Cc2ccccc2C(CNC2CCCCC2)C1c1ccccc1CN (stereo not drawn) [TRG 2405-195]			% Disp. of 125I-HP 467 (first of duplicate): 44.7%; % Disp. of 125I-HP 467 (second of duplicate): 35.7%
CNC(CN)CCCCN1Cc2ccccc2C(CNC2CCCCC2)C1c1ccccc1OC (stereo not drawn) [TRG 2405-199]			% Disp. of 125I-HP 467 (first of duplicate): 71.5%; % Disp. of 125I-HP 467 (second of duplicate): 71.4%
NCCN1Cc2ccccc2C(CNC2CCCCC2)C1c1cc(Cl)cc(Cl)c1 (stereo not drawn) [TRG 2405-30]	54.7	52.8	
CNC(CN)CCCCN1Cc2ccccc2C(CNC2CCCCC2)C1c1cccn1C (stereo not drawn) [TRG 2405-184]			% Disp. of 125I-HP 467 (first of duplicate): 55.8%; % Disp. of 125I-HP 467 (second of duplicate): 46%
CCNc1ccc(C2C(CN)c3ccccc3CN2CCCCC(CN)NCCNC)cc1 (stereo not drawn) [TRG 2413-3]			IC50 [1]: 1560 nM
CNC(CN)CN1Cc2ccccc2C(CNC2CCCCC2)C1c1ccc(C)o1 (stereo not drawn) [TRG 2405-169]	62.2	51.5	
NCCN1Cc2ccccc2C(CNC2CCCCC2)C1c1ccco1 (stereo not drawn) [TRG 2405-17]	36	32.8	
CCCOc1ccc(C2C(CNCCc3ccccc3)c3ccccc3CN2CCCCC(CN)NC)cc1 (stereo not drawn) [TRG 2412-7]			IC50 [1]: 420 nM
CCCCNc1ccc(C2C(CNCCc3ccccc3)c3ccccc3CN2CCCC(CN)NC)cc1 (stereo not drawn) [TRG 2411-189]			IC50 [1]: 120 nM
NCCN1Cc2ccccc2C(CNC2CCCCC2)C1c1ccc(-c2ccccc2)cc1 (stereo not drawn) [TRG 2405-61]	54.7	61.9	
CNCCNC(CN)CCCCN1Cc2ccccc2C(CNCCc2ccccc2)C1c1ccc(-c2ccccc2)cc1 (stereo not drawn) [TRG 2411-4]			IC50 [2]: 700 nM
CCOc1ccc(C2C(CNCCc3ccccc3)c3ccccc3CN2CCCC(CN)NC)cc1 (stereo not drawn) [TRG 2412-19]			IC50 [1]: 160 nM
CCNc1ccc(C2C(CNCCc3ccccc3)c3ccccc3CN2CCCCC(N)CN)cc1 (stereo not drawn) [TRG 2411-36]			IC50 [2]: 130 nM
CNC(CN)CCCCN1Cc2ccccc2C(CNC2CCCCC2)C1c1cccc(Br)c1 (stereo not drawn) [TRG 2405-217]			% Disp. of 125I-HP 467 (first of duplicate): 74.5%; % Disp. of 125I-HP 467 (second of duplicate): 68.8%
CNC(CN)CN1Cc2ccccc2C(CNC2CCCCC2)C1c1ccc2ccccc2n1 (mixture of isomers) [TRG 2405-112]	42.2	43.2	
CNC(CN)CN1Cc2ccccc2C(CNC2CCCCC2)C1c1c(F)cccc1F (stereo not drawn) [TRG 2405-101]	34	45.3	

SMILES	% Disp. MC-1 10 μM (first of duplicate) [%]	% Disp. MC-1 10 μM (second of duplicate) [%]	further results
NCC(N)CCCN1Cc2ccccc2C(CN)C1c1ccc(-c2ccccc2)cc1 (mixture of isomers) [TRG 2411-136]			IC50 [2]: 1730 nM
NCC(CCCCN1Cc2ccccc2C(CNCCc2ccccc2)C1c1ccc(-c2ccccc2)cc1)NCCO (stereo not drawn) [TRG 2411-7]			IC50 [2]: 630 nM
CNC(CN)CN1Cc2ccccc2C(CNC2CCCCC2)C1c1ccc(F)cc1 (stereo not drawn) [TRG 2405-155]	52.3	55.6	
CCn1c2ccccc2c2cc(C3C(CNC4CCCCC4)c4ccccc4CN3CC(CN)NC)ccc21 (stereo not drawn) [TRG 2405-173]			% Disp. of 125I-HP 467 (first of duplicate): 67%; % Disp. of 125I-HP 467 (second of duplicate): 59.3%
NCC(CCCCN1Cc2ccccc2C(CNC2CCCCC2)C1c1ccc(-c2ccccc2)cc1)NCCO (stereo not drawn) [TRG 2411-16]			IC50 [2]: 900 nM
CNC(CN)CN1Cc2ccccc2C(CNC2CCCCC2)C1c1ccco1 (stereo not drawn) [TRG 2405-107]	43.1	52.1	
NC[C@H](CCCCN1Cc2ccccc2C(CNCCc2ccccc2)C1c1ccc(-c2ccccc2)cc1)NCCc1ccccc1 (stereo partly drawn) [TRG 2411-3]			IC50 [2]: 880 nM
CNC(CN)CN1Cc2ccccc2C(CNC2CCCCC2)C1c1ccc(C(C)C)cc1 (stereo not drawn) [TRG 2405-157]	56.4	56.1	
CCNc1ccc(C2C(CNC3CCCCC3)c3ccccc3CN2CCCC(CN)NCc2ccc(OC)cc2)cc1 (stereo not drawn) [TRG 2411-171]			IC50 [1]: 150 nM
CCCCOc1ccc(C2C(CNCCc3ccccc3)c3ccccc3CN2CCCCC(CN)NCCc2ccccc2)cc1 (stereo not drawn) [TRG 2412-11]			IC50 [1]: 820 nM
CCCCNc1ccc(C2C(CNCCc3ccccc3)c3ccccc3CN2CCCC(CN)NCCN)cc1 (stereo not drawn) [TRG 2411-201]			IC50 [1]: 300 nM
CCNc1ccc(C2C(CN)c3ccccc3CN2CCCCC(N)CN)cc1 (stereo not drawn) [TRG 2411-59]			IC50 [2]: 370 nM
CNC(CN)CN1Cc2ccccc2C(CNC2CCCCC2)C1c1ccc(F)c(F)c1 (stereo not drawn) [TRG 2405-117]	40.9	55.7	
CNC(CN)CCCCN1Cc2ccccc2C(CN)C1c1ccc([N+](=O)[O-])cc1 (stereo not drawn) [TRG 2413-6]			IC50 [1]: 6510 nM
CNC(CN)CN1Cc2ccccc2C(CNC2CCCCC2)C1c1ccc2cccc(O)c2n1 (stereo not drawn) [TRG 2405-172]			% Disp. of 125I-HP 467 (first of duplicate): 59.4%; % Disp. of 125I-HP 467 (second of duplicate): 43.9%
CCNc1ccc(C2C(CN)c3ccccc3CN2CCCCC(CN)NCCc2ccc(OC)cc2)cc1 (stereo not drawn) [TRG 2411-65]			IC50 [2]: 390 nM
NCCN1Cc2ccccc2C(CNC2CCCCC2)C1c1ccc(Cl)cc1Cl (stereo not drawn) [TRG 2405-10]	56.9	53	
CNC(CN)CCCCN1Cc2ccccc2C(CNC2CCCCC2)C1c1ccc(OC)c2ccccc12 (mixture of isomers) [TRG 2405-248]			% Disp. of 125I-HP 467 (first of duplicate): 56.5%; % Disp. of 125I-HP 467 (second of duplicate): 67.9%
CCn1c2ccccc2c2cc(C3C(CNC4CCCCC4)c4ccccc4CN3CCCCC(CN)NC)ccc21 (stereo not drawn) [TRG 2405-263]			% Disp. of 125I-HP 467 (first of duplicate): 61.6%; % Disp. of 125I-HP 467 (second of duplicate): 65.3%

SMILES	% Disp. MC-1 10 μM (first of duplicate) [%]	% Disp. MC-1 10 μM (second of duplicate) [%]	further results
CCNc1ccc(C2C(CNC3CCCCC3)c3ccccc3CN2CCN)cc1 (stereo not drawn) [TRG 2405-59]	34.3	40.1	
NCCN1Cc2ccccc2C(CNC2CCCCC2)C1c1ccc2c(c1)OCCO2 (stereo not drawn) [TRG 2405-3]	46.8	44.2	
CNC(CN)CCCCN1Cc2ccccc2C(CNCCc2ccccc2)C1c1ccc([N+](=O)[O-])cc1 (mixture of isomers) [TRG 2413-5]			IC50 [1]: 4880 nM
CCCCNc1ccc(C2C(CN)c3ccccc3CN2CCCC(CN)NCCc2ccc3ccccc3c2)cc1 (stereo not drawn) [TRG 2409-227]			IC50 [2]: 170 nM
NCCN1Cc2ccccc2C(CNC2CCCCC2)C1c1ccc(F)c(F)c1 (stereo not drawn) [TRG 2405-27]	52.1	43.8	
CNC(CN)CN1Cc2ccccc2C(CNC2CCCCC2)C1c1ccc(OC)c(S(=O)(=O)O)c1 (stereo not drawn) [TRG 2405-178]			% Disp. of 125I-HP 467 (first of duplicate): 25%; % Disp. of 125I-HP 467 (second of duplicate): 22.1%
NCC(N)CCCCN1Cc2ccccc2C(CN)C1c1ccc(-c2ccccc2)cc1 (stereo not drawn) [TRG 2411-23]			IC50 [2]: 590 nM
NCCN1Cc2ccccc2C(CNC2CCCCC2)C1c1ccc(F)cc1 (stereo not drawn) [TRG 2405-65]	49.6	33.9	
CNC(CN)CCCN1Cc2ccccc2C(CNCCc2ccccc2)C1c1ccc(-c2ccccc2)cc1 (stereo not drawn) [TRG 2411-114]			IC50 [2]: 760 nM
CNC(CN)CN1Cc2ccccc2C(CNC2CCCCC2)C1c1cccc(F)c1 (stereo not drawn) [TRG 2405-131]	39.2	55.7	
NCCN1Cc2ccccc2C(CNC2CCCCC2)C1c1cccc([N+](=O)[O-])c1 (stereo not drawn) [TRG 2405-49]	37.2	42.4	
NCCN1Cc2ccccc2C(CNC2CCCCC2)C1c1ccccn1 (stereo not drawn) [TRG 2405-21]	47.7	42.5	
CNC(CN)CCCCN1Cc2ccccc2C(CNC2CCCCC2)C1c1cc(OC)cc(OC)c1 (stereo not drawn) [TRG 2405-211]			% Disp. of 125I-HP 467 (first of duplicate): 69.9%; % Disp. of 125I-HP 467 (second of duplicate): 69%
CCCCNc1ccc(C2C(CNCCc3ccccc3)c3ccccc3CN2CCCCC(CN)NCCN)cc1 (stereo not drawn) [TRG 2411-85]			IC50 [2]: 310 nM
NCC(CCCN1Cc2ccccc2C(CNCCc2ccccc2)C1c1ccc([N+](=O)[O-])cc1)NCCc1ccccc1 (stereo not drawn) [TRG 2413-13]			IC50 [1]: 1070 nM
CNC(CNC(CN)CCCN1Cc2ccccc2C(CNC2CCCCC2)C1c1ccc(-c2ccccc2)cc1)Cc1ccccc1 (stereo not drawn) [TRG 2411-130]			IC50 [2]: 920 nM
CCNc1ccc(C2C(CN)c3ccccc3CN2CCCC(CN)NCc2ccccc2)cc1 (stereo not drawn) [TRG 2411-182]			IC50 [1]: 200 nM
NCCN1Cc2ccccc2C(CNC2CCCCC2)C1c1ccc([N+](=O)[O-])c(O)c1 (stereo not drawn) [TRG 2405-70]	19.9	46.7	
NCC(CCCCN1Cc2ccccc2C(CN)C1c1ccc(-c2ccccc2)cc1)NCC1CCCCC1 (stereo not drawn) [TRG 2411-34]			IC50 [2]: 350 nM

Further lines, with some results ahead:

% Disp. MC-1 10 μM (first of duplicate) [%]	% Disp. MC-1 10 μM (second of duplicate) [%]	SMILES	further results
29.7	43.4	NCCN1Cc2ccccc2C(CNC2CCCCC2)C1c1ccc2ccccc2n1 (stereo not drawn) [TRG 2405-22]	
21.6	31.9	NCCN1Cc2ccccc2C(CNC2CCCCC2)C1c1ccc(O)c(O)c1 (stereo not drawn) [TRG 2405-25]	
0	43.1	Cc1cccc(C2C(CNC3CCCCC3)c3ccccc3CN2CCN)n1 (stereo not drawn) [TRG 2405-81]	
62.4	58.1	CCCOc1ccc(C2C(CNC3CCCCC3)c3ccccc3CN2CC(CN)NC)cc1 (stereo not drawn) [TRG 2405-163]	
23.2	16.9	NCCN1Cc2ccccc2C(CNC2CCCCC2)C1c1cccc(CN)c1 (stereo not drawn) [TRG 2405-39]	
35.3	38.7	CNC(CN)CN1Cc2ccccc2C(CNC2CCCCC2)C1c1cc(OC)cc(OC)c1 (stereo not drawn) [TRG 2405-121]	
